For assay [1], the system named is retinoic acid (RA) metabolism. Nature of the assay: Inhibition of retinoic acid (RA) metabolism in MCF-7 human breast cancer cells. The class given is cell-based. To be noted: MCF7, 3H-RA substrate, Table 1. As to the method: MCF-7 human breast cancer cells were grown as stock cultures according to art-known protocols. One day before the experiment, RA is added to the stock cultures to stimulate RA-metabolism. At the start of the experiment, cell suspensions were incubated in a tissue culture medium containing ^3 H-RA as the substrate. Different concentrations of the test compound (dissolved in 1% DMSO) were added to the incubation mixtures, and at the end of the incubation, the unmetabolized RA is separated from its polar metabolites. The fraction containing the polar ^3 H-labelled metabolites was collected and counted in a scintillation counter. For each experiment, a control and a blank incubation were run in parallel. The IC50 values listed in table 1 are the concentrations needed to reduce the amount of metabolites to 50% of the control.

Assay [2] concerns estradiol undecylate induced keratinization effects. The experiment in a line: Vaginal Keratinization Test on Ovariectomized Rats. The assay is classed as in vivo. To be noted: Rattus norvegicus, po, lowest active dose. As to the method:
Ovariectomized rats were injected subcutaneously with a sesame oil solution containing 100 μg of estradiol undecylate in a volume of 0.1 ml per 100 g body weight and control animals were injected with sesame oil. On day one, two and three, test animals were treated once daily with a per os dose of the test compound and control animals with the drug vehicle (PEG 200). One day after the last treatment, the animals were sacrificed and their vaginas were processed for histological evaluation according to the method described in J. Pharmacol. Exp. Ther. 261(2), 773-779 (1992). A dose at which 50% of the tested rats show complete suppression of the estradiol undecylate induced keratinization effects is defined as an active dose.
In said table, the keratinization effect of the present compound number 3 is compared to the structurally closest art-known compounds, the latter being disclosed in EP-0,371,564.

[3] abbreviates: 72 h, 50% of ovariectomized rats show complete suppression, per os once daily, 3 days, Table 1, read-out: Keratinization (LAD in mg/kg).
Setting [4] is: keratinization effect, per os, ovariectomized rats, comparison with EP-0,371,564 compounds, Table 2, read-out: LAD.

Read-outs that look alike come from different tables or passages of the source. A value given as a limit tells only on which side of the number the result lay.

The term IC50 denotes the concentration that inhibits the measured activity by half. A high value points to a need for much substance.

In the case of `O=c1ccc2cc(C(c3cccc(C(F)(F)F)c3)n3cncn3)ccc2[nH]1` (racemic) [Compound 3, (±)-6-[1H-1,2,4-triazol-1-yl[3-(trifluoromethyl)phenyl]methyl]-2(1H)-quinolinone], the IC50 in assay [1] is 0.851 µM. The minimal effective dose in assay [2] (setting [3]) and in assay [2] (setting [4]) was 2.5 mg/kg in each case.

For `CC(c1cccc(C(F)(F)F)c1)(c1ccc2[nH]c(=O)ccc2c1)n1cncn1` (centres unmarked) [Compound 4], in assay [1], half-maximal inhibition (IC50) was put at 0.51 µM. The minimal effective dose in assay [2] (setting [3]) is 5 mg/kg.

As to `CC(C)C(c1cccc(C(F)(F)F)c1)(c1ccc2[nH]c(=O)ccc2c1)n1cncn1` (centres unmarked) [Compound 7], the 50% inhibitory concentration (IC50) in assay [1] was 0.27 µM. Also, the minimal effective dose in assay [2] (setting [3]) is greater than 20 mg/kg.

For `O=c1ccc2cc(C(F)(c3cccc(C(F)(F)F)c3)n3cncn3)ccc2[nH]1` (centres unmarked) [Compound 5], the IC50 in assay [1] was greater than 10 µM. Moreover, in assay [2] (setting [3]), the minimal effective dose came to 5 mg/kg.

Take `O=c1ccc2cc(C(c3cccc(F)c3)n3ccnc3)ccc2[nH]1` (centres unmarked) [Compound 11-a, reference compound]: the minimal effective dose in assay [2] (setting [4]) was determined as 40 mg/kg.

`O=c1ccc2cc(C(c3cccc(C(F)(F)F)c3)n3cncn3)cc(F)c2[nH]1` (centres unmarked) [Compound 11] returned an IC50 in assay [1] of 0.154 µM. Further, the minimal effective dose in assay [2] (setting [3]) came out at 10 mg/kg.

Regarding `FC(F)(F)c1cccc(C(c2ccc3ncccc3c2)n2cncn2)c1` (centres unmarked) [Compound 66-a, reference compound], in assay [2] (setting [4]), the minimal effective dose is 10 mg/kg.

In the case of `O=c1ccc2c(Cl)c(C(c3cccc(C(F)(F)F)c3)n3cncn3)ccc2[nH]1` (centres unmarked) [Compound 10], it took 0.764 µM to reach half-maximal inhibition in assay [1] (IC50). Besides, the minimal effective dose in assay [2] (setting [3]) was 10 mg/kg.

Compound `Cn1c(=O)ccc2cc(C(C)(c3cccc(C(F)(F)F)c3)n3cncn3)ccc21` (centres unmarked) [Compound 14] displayed an IC50 in assay [1] of 0.00325 µM. Besides, the minimal effective dose in assay [2] (setting [3]) stood at 5 mg/kg.

In the case of `CCC(c1cccc(C(F)(F)F)c1)(c1ccc2[nH]c(=O)ccc2c1)n1cncn1` (centres unmarked) [Compound 6], inhibition in assay [1] was half-maximal at 0.0182 µM (IC50). For the same compound, the minimal effective dose in assay [2] (setting [3]) was found to be 10 mg/kg.

As to `O=c1ccc2cc([C@H](c3cccc(C(F)(F)F)c3)n3cncn3)ccc2[nH]1` [Compound 1, (-)-(R)-6-[1H-1,2,4-triazol-1-yl[3-(trifluoromethyl)phenyl]methyl]-2(1H)-quinolinone], in assay [1], half-maximal inhibition (IC50) required 0.85 µM. Further, in assay [2] (setting [3]), the minimal effective dose stood at 1.25 mg/kg.

In assay [1], `Nn1c(=O)ccc2cc(C(c3cccc(C(F)(F)F)c3)n3cncn3)ccc21` (racemic) [Compound 20, (±)-(1-amino-6-[1H-1,2,4-triazol-1-yl-[3-(trifluoromethyl)phenyl]methyl]-2(1H)-quinolinone] registered an IC50 of 1.47 µM. Besides, the minimal effective dose in assay [2] (setting [3]) is 5 mg/kg.

In the case of `Cc1cc(C(c2cccc(C(F)(F)F)c2)n2cncn2)cc2ccc(=O)[nH]c12` (centres unmarked) [Compound 9], the midpoint of inhibition in assay [1], the IC50, lay at 0.706 µM. In addition, the minimal effective dose in assay [2] (setting [3]) is 10 mg/kg.

In assay [1], `Cn1c(=O)ccc2cc(C(c3cccc(C(F)(F)F)c3)n3cncn3)ccc21` (racemic) [Compound 12, (±)-1methyl-6-[1H-1,2,4-triazol-1-yl[3-(trifluoromethyl)phenyl]methyl]-2(1H)-quinolinone] had an IC50 of 8.59 µM. The minimal effective dose in assay [2] (setting [3]) was determined as 2.5 mg/kg.

For `O=c1ccc2cc([C@@H](c3cccc(C(F)(F)F)c3)n3cncn3)ccc2[nH]1` [Compound 2], the IC50 in assay [1] worked out at 3.85 µM. Besides, the minimal effective dose in assay [2] (setting [3]) was greater than 40 mg/kg.

In assay [1], `Cn1c(=S)ccc2cc(C(c3cccc(C(F)(F)F)c3)n3cncn3)ccc21` (racemic) [Compound 21, (±)-1-methyl-6-[1H-1,2,4-triazol-1-yl[3-(trifluoromethyl]phenyl]methyl]-2(1H)-quinolinethione] came in with an IC50 of 4.37 µM. In assay [2] (setting [3]), the minimal effective dose amounted to 5 mg/kg.

In turn, `Cn1c(=O)ccc2cc(C(F)(c3cccc(C(F)(F)F)c3)n3cncn3)ccc21` (centres unmarked) [Compound 13] yielded an IC50 in assay [1] of 0.0102 µM.

For the origin of these results see patent US5922734A, “6-[triazolyl[3-(trifluoromethyl)phenyl]methyl]-2-quinolines and -quinolinethiones” (Janssen Pharmaceutica, N.V., priority 1994, dated 1999).
